Where two headings read alike, the source gives them in different places.
Assays:
[1] = Muscle stimulation test on rabbits; type: in vivo, New Zealand rabbits
Excerpt: The inventors have conducted the muscle stimulation test of Compounds Ia and II on rabbits. The test is as follows. Eight New Zealand rabbits were divided into three groups. Two groups, containing three rabbits per group, were administrated with Compound Ia and Compound II, respectively. The third group, containing two rabbits, was used as a negative control group. The rabbits were intramuscularly injected with high concentrations of the compounds into the left quadriceps and with low concentration into the right quadriceps. The negative control group was injected with an equal concentration of sodium chloride into the quadriceps of both sides. Each quadriceps was administrated with 1.0 mL once a day for three consecutive days. One or two rabbits from each group were anatomized after 48 hours of the injection. The remaining rabbits were anatomized after the end of the two-week recovery period.

[2] = pH of aqueous solution; type: physicochemical
[3] = Solid state stability, 72 hours in storage at various temperatures; type: physicochemical
Excerpt: (§1) Compared to Compound II, Compound I has better stability in aqueous solution (see Table 2) and in the solid state (See Table 3). Thus Compound I can be stored without freezing or special treatment.

[4] = type: physicochemical; settings: for content in aqueous injection solution: 37° C.
Excerpt: as §1

[5] = Acute toxicity tests on rats; type: in vivo; settings: intravenous injection
[6] = test system: Excrement Enterococcus; assay: In-vivo antibacterial activity (protection of rats); settings: against Excrement Enterococcus
[7] = type: in vivo
Method: The inventors conducted preliminary pharmacokinetic study of Compound Ia on Beagle dogs. The Beagle dogs were allowed to drink water freely but not to eat food for 16 hours before and 4 hours after the intravenous injection of 50 mg/kg.bw of the compound. Intravenous blood sampling took place at 0, 0.083, 0.17, 0.25, 0.5, 1, 1.5, 2, 3, 4, 6, 9, 12 hours, respectively, after the injection, each blood sample being 3 mL. Thereafter the dogs were given the drugs every other week and blood samples were taken according to the above manner. The blood samples were added to the centrifuge tubes containing heparin and thoroughly mixed by centrifuging at 4000 rpm for 10 minutes. The blood plasma was separated and an abstraction agent (methanol/ethyl acetate 3:2 V/V) was added to and mixed with it by centrifuging at 10000 rpm for 10 minutes. The top, clear liquid, 20 μL, was taken and analyzed by HPLC.

[8] = test system: Excrement Enterococcus; assay: Vitro bacteriostasis, two-fold agar dilution method; type: cell-based
Method: (§2) Vitro bacteriostasis experiments of Compounds Ia, Ib, and Ic were performed using the two-fold agar dilution method.

[9] = test system: Shigella; assay: as above; type: cell-based
Method: as §2

[10] = test system: Pneumonia Chain Coccus; assay: as above; type: cell-based
Method: as §2

[11] = test system: Haemophilus Influenzae; assay: as above; type: cell-based
Method: as §2

[12] = test system: Type A Chain Coccus; assay: as above; type: cell-based
Method: as §2

[13] = test system: Moraxella Catarrhalis; assay: as above; type: cell-based
Method: as §2

[14] = test system: Type B Chain Coccus; assay: as above; type: cell-based
Method: as §2

[15] = test system: Moraxella Catarrhalis; assay: In-vivo antibacterial activity (protection of rats); settings: against Moraxella Catarrhalis
[16] = Solubility
[17] = test system: Pneumonia Chain Coccus; assay: In-vivo antibacterial activity (protection of rats); settings: against Pneumonia Chain Coccus
[18] = healthy Beagle dogs, single intravenous injection 50 mg/kg.bw

Row | SMILES | pH ([2]; concentration not given) | content after 72 hours in storage ([3]; 10° C.) | content after 72 hours in storage ([3]; 40° C.) | content after 72 hours in storage ([3]; 60° C.) | content after 72 hours in storage ([3]; −5° C.) | content in aqueous injection solution ([4]; 0 hr) | content in aqueous injection solution ([4]; 0.2 hr) | content in aqueous injection solution ([4]; 1 hr) | content in aqueous injection solution ([4]; 2 hr) | content in aqueous injection solution ([4]; 3 hr) | content in aqueous injection solution ([4]; 4 hr) | LD50 [5] | t1/2β [7, 18] | MIC90 [8] | MIC90 [9] | MIC90 [10] | MIC90 [11] | MIC90 [12] | MIC90 [13] | MIC90 [14] | other results
1 | CC(C)N=C(NC(C)C)SCC(=O)NC1C(=O)N2C(C(=O)O)=C(CSc3nc(=O)c(=O)[nH]n3C)CSC12 (stereo not drawn) [Compound II, 7-(α-((N,N′-diisopropylamidino)thio)acetylamino)-3-(((1,2,5,6-tetrahydro-2-methyl-5,6-dioxo-1,2,4-triazin-3-yl)thio)methyl) cephalosporanic acid, reference compound] | 3.2 | 97.9% | 96.3% | 92.75% | 98.0% | 98.50% | 94.33% | 84.26% | 77.04% | 71.06% | 66.48% |  |  |  |  |  |  |  |  |  | irritation (general statement) ([1]; rabbit, in vivo): irritates muscles and blood vessels; muscle irritation observed ([1]; rabbit, in vivo): various levels of intense irritation; pH value of saturated aqueous solution ([2]; saturated aqueous solution): 3.2; stability (general statement) [4]: low stability
2 | CC(C)N=C(NC(C)C)SCC(=O)NC1C(=O)N2C(C(=O)[O-])=C(CSc3nc(=O)c(=O)[nH]n3C)CSC12.[Na+] (stereo not drawn) [Compound Ia, 7-(α-((N,N′-diisopropylamidino)thio)acetylamino)-3-(((1,2,5,6-tetrahydro-2-methyl-5,6-dioxo-1,2,4-triazin-3-yl)thio)methyl) cephalosporanic acid mono sodium salt] | 7.3 | 96.9% | 96.6% | 96.4% | 97.0% | 98.60% | 98.60% | 97.98% | 97.79% | 97.24% | 97.13% | 1747.6 mg/kg | 155 ± 2.4 min | 8 µg/mL | 4 µg/mL | 0.125 µg/mL | 0.5 µg/mL | 0.5 µg/mL | 1 µg/mL | 0.0625 µg/mL | protection for rats [6]: excellent protection; muscle irritation observed ([1]; rabbits, intramuscular into quadriceps, 1.0 mL once a day for three days, 48 hours and 14 days after last administration): slight irritation; AUC [7, 18]: 108.29 ± 18.17 µg·h/mL; ClB [7, 18]: 7.83 ± 1.5 mL/min/kg; Cmax [7, 18]: 116.35 ± 12.06 µg/mL; V1 [7, 18]: 0.25 ± 0.07 L/kg; VB [7, 18]: 1.61 ± 0.30 L/kg; t1/2α [7, 18]: 37.8 ± 7.2 min; drug concentration after 12 hours of the administration ([7]; healthy Beagle dogs, single intravenous injection 50 mg/kg.bw, 12 hours): 0.39 ± 0.09 µg/mL; protection for rats [15]: excellent protection; solubility in acetone ([16]; acetone): not readily soluble; solubility in anhydrous ethanol ([16]; anhydrous ethanol): not readily soluble; solubility in methanol ([16]; methanol): readily soluble; solubility in water ([16]; water): readily soluble; pH ([2]; concentration 0.1 g/mL): 7.3; protection for rats [17]: excellent protection
3 | CC(C)N=C(NC(C)C)SCC(=O)NC1C(=O)N2C(C(=O)[O-])=C(CSc3nc(=O)c(=O)[nH]n3C)CSC12.CC(C)N=C(NC(C)C)SCC(=O)NC1C(=O)N2C(C(=O)[O-])=C(CSc3nc(=O)c(=O)[nH]n3C)CSC12.[Na+].[Na+] (stereo not drawn) [Compound Ib, disodium 7-(α-((N,N′-diisopropylamidino)thio)acetylamino)-3-(((1,2,5,6-tetrahydro-2-methyl-5,6-dioxo-1,2,4-triazin-3-yl)thio)methyl) cephalosporanate] |  |  |  |  |  | 98.80% | 98.54% | 97.14% | 96.66% | 95.21% | 94.30% |  |  | 4 µg/mL | 4 µg/mL | 0.5 µg/mL | 0.5 µg/mL | 0.1 µg/mL | 0.5 µg/mL | 0.0125 µg/mL | pH ([2]; concentration 0.1 g/mL): 10.02
4 | CC(C)N=C(NC(C)C)SCC(=O)NC1C(=O)N2C(C(=O)[O-])=C(CSc3nc(=O)c(=O)[nH]n3C)CSC12.[K+] (stereo not drawn) [Compound Ic, 7-(α-((N,N′-diisopropylamidino)thio)acetylamino)-3-(((1,2,5,6-tetrahydro-2-methyl-5,6-dioxo-1,2,4-triazin-3-yl)thio)methyl) cephalosporanic acid monopotassium salt] |  |  |  |  |  |  |  |  |  |  |  |  |  | 8 µg/mL | 4 µg/mL | 0.5 µg/mL | 0.5 µg/mL | 0.1 µg/mL | 0.5 µg/mL | 0.0156 µg/mL | 
5 | CC(=O)OCC1=C(C(=O)O)N2C(=O)[C@@H](NC(=O)CSC(=NC(C)C)NC(C)C)[C@H]2SC1 [cefathiamidine, Cefathiamidine, reference compound] |  |  |  |  |  |  |  |  |  |  |  | 824.2 mg/kg | 39 ± 1.8 min |  |  |  |  |  |  |  | biological half-life in blood ([7]; Beagle dogs, preliminary pharmacokinetic study): 0.65 hours
